For this assay, the system named is CEM cells HIV-1 protection, formazan growth assay. Nature of the assay: NCI AIDS Antiviral Assay. As to conditions: for IC50: measured here: growth of uninfected CEM cells. In short, it runs like this:
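Protection of CEM cells against HIV-1 was scored from cell growth (soluble formazan) across five concentrations, with parallel uninfected cells. Lack of protection may reflect toxicity.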

“And” between values parts separate entries of the source, which are not always exact repeats. Identical values can stand only once. The source made the active and inactive calls.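 The calls were made as follows: active = compounds giving half or more protection of infected cells from virus-caused growth loss, again on retest; inactive = the rest.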 Where a SMILES comes first, the peptide text is derived from it.

As for `CCOC(=O)NC(NC1=NCCS1)(C(=O)OCC)C(F)(F)F` (configuration not stated), the EC50 is greater than 200 µM and the concentration for half-maximal inhibition (IC50) turned out to be 191 µM.

For the molecule `NCCC1([N+](=O)[O-])C=CN=CC1` (configuration not stated), the result was inactive.

Take `O=C(O)CCNCCCNCCC(=O)O`: the EC50 is greater than 851 µM and the IC50 was greater than 851 µM.

`CC(=O)Nc1cc2c3c(c1)CCCN3CCC2`: the EC50 is greater than 200 µM and the 50% inhibitory concentration (IC50) turned out to be 39.8 µM.

For the molecule `COC(=O)c1cc(C)ccc1CC(Cc1ccccc1C)C(=O)OC` (configuration not stated), the EC50 was greater than 200 µM and the IC50 came to 37.2 µM.

With `CC(=O)c1cccc(C(C)=O)c1N=Cc1ccc(Cl)cc1`, the EC50 was greater than 200 µM and the IC50 amounted to 13.2 µM.

As to `O=C(CCCl)Nc1c(Cl)cccc1Cl`, the outcome was inactive.

Take `CCOC(=O)C(=C=C=C(c1ccccc1)c1ccccc1)C(=O)OCC`: the result was inactive.

Consider `CCOC(=O)C1=C(c2ccccc2)NC(c2ccccc2)=C(C(=O)OCC)c2c1c(=O)cc[nH]c2=O`, for which the EC50 is greater than 53.7 µM and the IC50 was greater than 53.7 µM.

On to `Clc1ccc([S+](c2ccc(Cl)cc2)C(Cl)(Cl)C(Cl)(Cl)Cl)cc1`, for which the EC50 was greater than 52.5 µM and the IC50 is 7.24 µM.

Turning to `COc1cc(OC)c(/C=C\c2ccnc3ccccc23)c(OC)c1`, the EC50 is greater than 200 µM and the IC50 came to 8.51 µM.

For the molecule `O=C1CN(CCN2CCCCC2)CC(=O)N2Cc3ccccc3CN12`, the EC50 was greater than 200 µM and the IC50 was greater than 200 µM.

For `CCOC(=O)C1(C(=O)OCC)CCC(C(OC)OC)C(CC(=O)OC)C1` (configuration not stated), the EC50 is greater than 200 µM and the IC50 was greater than 200 µM.

With `COCCNC1CCC2(SCCS2)c2[nH]c3ccccc3c21` (configuration not stated), the EC50 is greater than 200 µM and the IC50 worked out at 39.8 µM.

Turning to `COc1ccc(C(c2cc3c(cc2O)OCO3)N2CCOCC2)c(OC)c1` (configuration not stated), the EC50 was greater than 95.5 µM and the IC50 was determined as 7.94 µM.

Regarding `CCOP(=O)(OCC)C(C)(C)OC(=O)NC(F)(F)F`, the EC50 is greater than 200 µM and the IC50 was greater than 200 µM.

As for `COC(=O)C(/C(=N/N)C(=O)Nc1cc(Cl)c(Cl)cc1Cl)c1nc2ccc(Cl)cc2[nH]c1=O` (configuration not stated), the EC50 is greater than 50.1 µM and the 50% inhibitory concentration (IC50) is greater than 50.1 µM.

As to `Clc1ccc(C[P+](c2ccccc2)(c2ccccc2)c2ccccc2)c(Cl)c1`, the EC50 is greater than 200 µM and the IC50 was 1.48 µM.

`Cc1cn(C2CC(O)C(CO)C2C)c(=O)[nH]c1=O` (configuration not stated): the EC50 was greater than 200 µM and the IC50 was greater than 200 µM.

With `O=Cc1ccc(-c2ccc(S(=O)(=O)O)cc2)o1`, the EC50 was greater than 200 µM and the IC50 stood at 93.3 µM.

`Cc1c(C)c2cc3ccoc3cc2oc1=O`: the EC50 is greater than 83.2 µM and the half-maximal inhibitory concentration (IC50) was greater than 83.2 µM.

`Cc1cccc(NC(=O)/C=C/c2ccc(N(CCC#N)CCC#N)cc2C)c1`: the EC50 is greater than 676 µM and the concentration for half-maximal inhibition (IC50) is greater than 676 µM.

On to `O=C(O)C12C=CC(C1)c1ccccc12` (configuration not stated), for which the EC50 is greater than 251 µM and the half-maximal inhibitory concentration (IC50) was greater than 251 µM.

On to `Oc1c(Br)cc(Br)cc1-c1[nH]c(Br)c(Br)c1Br`, for which the EC50 was greater than 234 µM and the IC50 came to 1.02 µM.

Take `COc1ccc(/C(C#N)=C/c2ccc(N(C)CCC#N)cc2)cc1`: the EC50 is greater than 200 µM and the half-maximal inhibitory concentration (IC50) amounted to 3.16 µM.

Regarding `O=C(O)/C(Cl)=C(/Cl)C(=O)Nc1cccc(Cl)c1`, the outcome was inactive.

`Cc1ccc(C)c(NC(=O)C(=O)C(C2C(C)CC(=O)C2CC(=O)O)[N+](=O)[O-])c1` (configuration not stated): the EC50 was greater than 646 µM and the IC50 is greater than 646 µM.

With `O=C(CNC(=O)OCc1ccccc1)NCCCCC(NC(=O)OCc1ccccc1)C(=O)NC(CCCCNC(=O)CNC(=O)OCc1ccccc1)C(=O)OCc1ccccc1` (configuration not stated), the EC50 is greater than 100 µM and the IC50 was greater than 100 µM.

Consider `O=S1(=O)CCC(OC2CCS(=O)(=O)C2)C1` (configuration not stated), for which the EC50 was greater than 977 µM and the IC50 is greater than 977 µM.

Consider `O=c1c(-c2ccccc2)c(S)sc(S)c1-c1ccccc1`, for which the EC50 was greater than 200 µM and the IC50 was greater than 200 µM.

In the case of `CCOC(=O)/C(=C\c1cccc(C#N)c1)[Se]c1ccccc1`, the EC50 was greater than 52.5 µM and the IC50 is greater than 52.5 µM.

In the case of `O=[N+]([O-])/C=C/c1cn(CCCCCCCCn2cc(/C=C/[N+](=O)[O-])c3ccccc32)c2ccccc12`, the EC50 was greater than 200 µM and the half-inhibitory concentration (IC50) amounted to 35.5 µM.

Regarding `CCOCC(=O)N[C@H]1CCc2cc(OC)c(OC)c(OC)c2-c2ccc(SC)c(=O)cc21`, the EC50 was greater than 0.2 µM and the IC50 was 0.00115 µM.

In the case of `COC(=O)c1cc(=O)nc(N/N=C/c2ccc(C)cc2)s1`, the EC50 was greater than 44.7 µM and the IC50 is 30.9 µM.

Regarding `N#CCCC(C#N)(CCC#N)c1ccccc1`, the EC50 was greater than 813 µM and the half-inhibitory concentration (IC50) was greater than 813 µM.

In the case of `CN1C(=O)C(O)C[C@@H]1c1ccc(F)cc1` (some centres not stated), the outcome was inactive.

In the case of `C=C(CCCCOCOCCOC)c1ccccc1`, the result was inactive.

For the molecule `CC1=NN2C(=N)/C(=C/c3ccccc3)C(=O)N=C2S1`, the EC50 is greater than 200 µM and the concentration for half-maximal inhibition (IC50) is greater than 200 µM.

`CC(=O)OCC(OC(C)=O)C(Cl)CCl` (configuration not stated): the EC50 is greater than 200 µM and the IC50 is greater than 200 µM.

On to `COc1cc(C)c(C(=O)Oc2cc(C)c(C(=O)O)c(O)c2C)c(OC)c1C`, for which the EC50 was greater than 200 µM and the IC50 was determined as 70.8 µM.

In the case of `COc1ccc(C(=O)C2COC(=O)C2=O)cc1OC` (configuration not stated), the EC50 was greater than 200 µM and the IC50 was greater than 200 µM.

As for `CN1CCN(C(=S)N(C)C(=O)c2ccc(Cl)cc2)CC1`, the EC50 is greater than 794 µM and the IC50 came out at 389 µM.

Turning to `CC1(Br)C(=O)NC(=O)N(C2C=CC(CO)O2)C1O` (configuration not stated), the EC50 is greater than 200 µM and the IC50 was greater than 200 µM.

On to `Nc1ncnc2c1ncn2[C@@H]1C[C@H]1CO`, for which the EC50 was greater than 200 µM and the IC50 is greater than 200 µM.

For the molecule `CC(=O)/C(=C/c1cccc(F)c1)c1ccccc1`, the EC50 was greater than 56.2 µM and the IC50 was greater than 56.2 µM.

Take `Cc1ccc(-c2c(C#N)c(-c3ccccc3)c(C#N)c(=O)n2NS(=O)(=O)c2ccccc2)cc1`: the EC50 was greater than 200 µM and the IC50 worked out at 69.2 µM.

Regarding `CSCCC(N)P(C)(=O)O` (configuration not stated), the EC50 is greater than 200 µM and the IC50 was greater than 200 µM.

As to `N=C(N)SCc1ccc2nsnc2c1`, the EC50 was greater than 309 µM and the IC50 amounted to 52.5 µM.

For the molecule `O=C1CC(=O)NC(=NNS(=O)(=O)c2ccccc2)N1`, the EC50 was greater than 200 µM and the IC50 is greater than 200 µM.

Consider `CCOc1ccc(NC(=O)CC2Sc3ccccc3NC2=O)cc1` (configuration not stated), for which the EC50 was greater than 11 µM and the IC50 is greater than 11 µM.

For `CC1C2=C(CC(C)(C)CC2=O)NC2=C1C(=O)CC(C)(C)C2`, the EC50 was greater than 200 µM and the IC50 worked out at 166 µM.

Turning to `O=C1CC2CCC(C1)N2CC1COc2ccccc2O1` (configuration not stated), the EC50 is greater than 200 µM and the IC50 was greater than 200 µM.

With `O=C(O)C1CC2C3CC(C(=O)O)C(C3)C2C1` (configuration not stated), the EC50 was greater than 200 µM and the half-inhibitory concentration (IC50) was greater than 200 µM.

For the molecule `O=C(OCC(O)CO)c1c(Cl)c(Cl)c(Cl)c(Cl)c1-c1c2cc(I)c(=O)c(I)c-2oc2c(I)c(O)c(I)cc12` (configuration not stated), the EC50 was greater than 200 µM and the IC50 was 2.63 µM.

Consider `Cc1nc(Nc2nnc(-c3cc([N+](=O)[O-])cc([N+](=O)[O-])c3C)o2)sc1C(=O)CC(=O)Cc1nc2ccc(Cl)cc2[nH]c1=O`, for which the EC50 was greater than 57.5 µM and the IC50 is greater than 57.5 µM.

As for `CCC/C(=N/NC(=O)C(N)=O)C(CC)C(=O)CCC(=O)N(Cc1ccccc1)Cc1ccccc1` (configuration not stated), the EC50 is greater than 525 µM and the IC50 was greater than 525 µM.

On to `COc1cccc(/C=C(\NC(C)=O)c2nc3ccc(Cl)cc3[nH]2)c1`, for which the outcome was inactive.

On to `COc1cc(/C=C(\C#N)c2ccccn2)cc(Br)c1O`, for which the EC50 is greater than 200 µM and the IC50 worked out at 28.2 µM.

Turning to `Cc1cccc2c1CC1(C2)Cc2c(C)cccc2C1=O` (configuration not stated), the EC50 was greater than 200 µM and the IC50 turned out to be 37.2 µM.

Consider `COc1ccc(O)c(/C(C)=N/NC(=S)N(C)C)c1`, for which the EC50 was greater than 200 µM and the IC50 was found to be 10.7 µM.

`COc1ccc(C(c2ccc(C(C)C)cc(=O)c2O)c2ccc3cccnc3c2O)cc1` (configuration not stated): the outcome was inactive.

On to `CCCCCCCCCCCCc1ccsc1-c1ccc(-c2ccc(-c3sccc3CCCCCCCCCCCC)s2)s1`, for which the EC50 was greater than 25.1 µM and the IC50 is greater than 25.1 µM.

Regarding `CC1(C)OC(=S)N(c2ccccc2)C12C=Cc1cc3ccccc3nc1S2` (configuration not stated), the EC50 was greater than 3.72 µM and the half-inhibitory concentration (IC50) worked out at 3.31 µM.

For the molecule `O=P1(Cc2ccccc2)c2ccccc2-c2ccccc21`, the EC50 was greater than 200 µM and the IC50 was determined as 3.63 µM.

Regarding `O=C(C(=Cc1ccc(F)cc1)C(=O)c1ccccc1)c1ccccc1`, the EC50 was greater than 110 µM and the IC50 is greater than 100 µM.

Turning to `CN1C(=O)C(N=Nc2ccc([N+](=O)[O-])cc2)SC1=S` (configuration not stated), the EC50 is greater than 100 µM; the half-maximal inhibitory concentration (IC50) was 10.7 µM and > 12.6 µM.

Consider `O=S(Nc1ccccc1)c1cccc(Cl)c1` (configuration not stated), for which the outcome was inactive.

As to `Cc1cccc(NC(=O)CSc2nnc(-c3ccc(N=Cc4ccc(Cl)cc4)cc3)o2)c1`, the EC50 was greater than 21.4 µM and the IC50 is greater than 21.4 µM.

In the case of `CCc1n[nH]c(=O)n1CC`, the EC50 was greater than 200 µM and the IC50 is greater than 200 µM.

`C=[N+](CNC(=O)CNC(=O)C(Cc1ccccc1)NC(=O)OC(C)(C)C)C(=O)CNC(=O)C(Cc1ccccc1)NC(=O)OC(C)(C)C` (configuration not stated): the EC50 is greater than 100 µM and the IC50 was greater than 100 µM.

For the molecule `OC1CC=C2CCN3Cc4cc5c(cc4C1C23)OCO5` (configuration not stated), the result was inactive.

`N#CC(NNC(=O)Cc1ccccc1)c1ccc(O)cc1` (configuration not stated): the EC50 is greater than 891 µM and the IC50 stood at 245 µM.

As for `N#C/C(=C\c1cccc(Br)c1)c1nc2ccccc2c(=O)[nH]1`, the outcome was inactive.

Consider `CCC(C)C(NC(=O)C(CCCN=C(N)N)NC(=O)C(CC(=O)O)NC(=O)C(Cc1cnc[nH]1)NC(=O)C(N)CC(C)C)C(=O)NC(C(=O)NC(CC(C)C)C(=O)NC(C(=O)NC(Cc1cnc[nH]1)C(=O)O)C(C)O)C(C)CC` (configuration not stated) (H-LHDRIILTH-OH; configuration not given here), for which the EC50 was greater than 44.7 µM and the IC50 was greater than 44.7 µM.

The record behind these values is PubChem BioAssay AID179 (DTP/NCI, 2004).
